For test [1], the target named is T1, c-KIT V654A kinase (Seq ID no. 2) (Homo sapiens, UniProt P10721, V654A).
T1 construct: V654A c-Kit (residues T544-V976 with N-terminal GST fusion, 47 nM); purchased deCODE Biostructures
As to the kind of experiment: c-KIT V654A Kinase Assay. The class given is biochemical. The settings on record: enzymatic assay, ATP 200 μM. As to the method:
In this assay, the oxidation of NADH (measured by decrease in absorbance at 340 nm) was continuously monitored spectrophotometrically. […] The inhibition reaction was started by mixing serial diluted test compound with the above reaction mixture. The absorption at 340 nm was monitored continuously for 6 hours at 30° C. on Synergy 2 plate reader (BioTech).
The protein construct was prepared by deCODE Biostructures using procedures known in the art. The construct contains residues T544-V976 of cKit, an N-terminal tag, a GST-fusion sequence and a TEV cleavage site. This construct is identical to Seq ID no.

The target of test [2] is Phospho-KIT (Tyr719) in GIST48 cells (Homo sapiens, UniProt P10721). Nature of the test: GIST48 KIT Western Blot. Format: cell-based. The settings on record: 4 hours, read-out: pKIT suppression by western blot analysi GIST48.
Phospho-KIT (Tyr719) in GIST48 cells, sequence (P10721 whole entry V560D/D820A, form open): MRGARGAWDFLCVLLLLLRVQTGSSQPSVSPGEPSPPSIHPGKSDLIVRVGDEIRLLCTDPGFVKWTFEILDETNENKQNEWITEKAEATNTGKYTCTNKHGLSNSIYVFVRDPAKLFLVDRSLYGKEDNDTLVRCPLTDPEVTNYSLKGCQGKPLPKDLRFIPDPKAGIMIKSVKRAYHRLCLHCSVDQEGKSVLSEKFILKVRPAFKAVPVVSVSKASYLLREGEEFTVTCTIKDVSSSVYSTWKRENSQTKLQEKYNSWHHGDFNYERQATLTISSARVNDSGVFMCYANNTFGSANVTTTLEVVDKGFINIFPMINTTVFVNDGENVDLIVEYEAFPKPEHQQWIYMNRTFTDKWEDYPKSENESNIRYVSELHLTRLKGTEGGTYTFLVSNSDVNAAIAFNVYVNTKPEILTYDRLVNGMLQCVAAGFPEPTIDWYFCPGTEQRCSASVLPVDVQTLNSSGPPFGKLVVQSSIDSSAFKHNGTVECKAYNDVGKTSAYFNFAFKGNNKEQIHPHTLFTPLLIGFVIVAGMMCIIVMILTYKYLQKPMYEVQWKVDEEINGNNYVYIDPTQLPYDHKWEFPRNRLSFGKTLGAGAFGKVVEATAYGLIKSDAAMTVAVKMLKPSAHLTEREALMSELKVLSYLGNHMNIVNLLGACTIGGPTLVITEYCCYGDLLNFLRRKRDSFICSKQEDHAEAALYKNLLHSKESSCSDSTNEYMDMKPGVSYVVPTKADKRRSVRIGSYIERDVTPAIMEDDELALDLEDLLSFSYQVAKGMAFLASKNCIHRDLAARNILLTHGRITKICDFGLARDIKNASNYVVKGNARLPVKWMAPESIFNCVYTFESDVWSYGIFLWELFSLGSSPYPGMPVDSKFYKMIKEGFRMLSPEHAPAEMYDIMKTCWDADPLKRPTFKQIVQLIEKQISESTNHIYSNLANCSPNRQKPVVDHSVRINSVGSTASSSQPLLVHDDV
The target in test [3] is T2, c-KIT D816H kinase (Seq ID no. 3) (Homo sapiens, UniProt P10721, D816H).
T2 construct: GST (N); TEV cleavage site (N); purchased deCODE Biostructures
T2 sequence (P10721 544-976 D816H): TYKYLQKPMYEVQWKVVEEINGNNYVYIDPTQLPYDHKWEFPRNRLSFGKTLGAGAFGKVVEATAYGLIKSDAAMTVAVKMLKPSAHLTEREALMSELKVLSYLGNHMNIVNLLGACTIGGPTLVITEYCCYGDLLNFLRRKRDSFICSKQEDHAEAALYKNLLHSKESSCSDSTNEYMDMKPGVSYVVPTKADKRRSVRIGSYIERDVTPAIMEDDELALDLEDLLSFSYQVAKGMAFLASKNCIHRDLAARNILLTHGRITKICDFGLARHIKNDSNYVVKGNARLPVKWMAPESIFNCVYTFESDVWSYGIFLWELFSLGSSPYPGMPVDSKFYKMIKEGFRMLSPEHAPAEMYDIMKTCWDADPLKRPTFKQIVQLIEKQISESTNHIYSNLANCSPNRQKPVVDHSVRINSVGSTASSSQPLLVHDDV
As to the kind of experiment: c-KIT D816H Kinase Assay. The class given is biochemical. The settings on record: enzymatic assay, ATP 200 μM.

Test [4] addresses Phospho-KIT (Tyr719) in GIST430 cells (Homo sapiens, UniProt P10721). Nature of the test: GIST430 KIT Western Blot. The settings on record: 4 hours, read-out: pKIT suppression by western blot analysi GIST430. The class given is cell-based.
Test [5] addresses T3, Phospho-KIT (Tyr719) in GIST882 cells (Homo sapiens, UniProt P10721, K642E).
T3 construct: endogenous in cells; host or cells: GIST882
Nature of the test: GIST882 KIT Western Blot. Format: cell-based. The settings on record: 4 hours, read-out: pKIT suppression by western blot analysi GIST 882. On the procedure:
GIST48, GIST430, and GIST882 cells were obtained from J. Fletcher (Brigham and Women's Hospital, Boston, Mass.). GIST T1 cells were obtained from B. Rubin (Cleveland Clinic, Cleveland, Ohio) and Professor Takahiro Taguchi (Kochi Medical School, Nankoku, Kochi, Japan). […] GIST430 cells were grown in Ham's F10 medium supplemented with 15% characterized fetal bovine serum (Invitrogen, Carlsbad, Calif.), 30 mg/L bovine pituitary extract (BD Biosciences, San Jose, Calif.), 0.5% Mito+ serum extender (BD Biosciences, San Jose, Calif.), 1 unit/mL penicillin G, 1 μg/ml streptomycin, and 0.29 mg/mL L-glutamine at 37° C., 5% CO2, 95% humidity. GIST T1 cells were grown in DMEM medium supplemented with 10% characterized fetal bovine serum (Invitrogen, Carlsbad, Calif.), 1 unit/mL penicillin G, 1 ng/ml streptomycin, and 0.29 mg/mL L-glutamine at 37° C., 5% CO2, and 95% humidity. Cells were allowed to expand until reaching 70-95% confluence at which point they were subcultured or harvested for assay use.
Two hundred fifty thousand cells were added per well in a 24-well tissue-culture treated plate. Cells were then incubated overnight at 37° C., 5% CO2, 95% humidity. Medium was aspirated, cells were washed with PBS, and serum-free RPMI1640 medium was added. A serial dilution of test compound was added to plates containing cells and plates were incubated for 4 hours at 37° C., 5% CO2, 95% humidity. Cells were washed with PBS, then lysed. Cell lysates were separated by SDS-PAGE and transferred to PVDF. Phospho-KIT (Tyr719) was detected using an antibody from Cell Signaling Technology (Beverly, Mass.), ECL Plus detection reagent (GE Healthcare, Piscataway, N.J.) and a Molecular Devices Storm 840 phosphorimager in fluorescence mode. Blots were stripped and probed for total KIT using an antibody from Santa Cruz Biotech (Santa Cruz, Calif.). IC50 values were calculated using Prism software (Graphpad, San Diego, Calif.).

The target of test [6] is T4, c-KIT T670I kinase (Seq ID no. 6) (Homo sapiens, UniProt P10721, T670I).
T4 construct: GST (N); TEV cleavage site (N); purchased deCODE Biostructures
T4 sequence (P10721 544-976 T670I): as the sequence (P10721 544-976 D816H) above, with T127I, H273D counted along it
Nature of the test: c-KIT T670I Kinase Assay. Format: biochemical. The settings on record: enzymatic assay, ATP 200 uM.

This is an account of results in patent US8940756B2, “Dihydronaphthyridines and related compounds useful as kinase inhibitors for the treatment of proliferative diseases” (Deciphera Pharmaceuticals, Inc., priority 2012, dated 2015).

T3 sequence (P10721 26-976 K642E): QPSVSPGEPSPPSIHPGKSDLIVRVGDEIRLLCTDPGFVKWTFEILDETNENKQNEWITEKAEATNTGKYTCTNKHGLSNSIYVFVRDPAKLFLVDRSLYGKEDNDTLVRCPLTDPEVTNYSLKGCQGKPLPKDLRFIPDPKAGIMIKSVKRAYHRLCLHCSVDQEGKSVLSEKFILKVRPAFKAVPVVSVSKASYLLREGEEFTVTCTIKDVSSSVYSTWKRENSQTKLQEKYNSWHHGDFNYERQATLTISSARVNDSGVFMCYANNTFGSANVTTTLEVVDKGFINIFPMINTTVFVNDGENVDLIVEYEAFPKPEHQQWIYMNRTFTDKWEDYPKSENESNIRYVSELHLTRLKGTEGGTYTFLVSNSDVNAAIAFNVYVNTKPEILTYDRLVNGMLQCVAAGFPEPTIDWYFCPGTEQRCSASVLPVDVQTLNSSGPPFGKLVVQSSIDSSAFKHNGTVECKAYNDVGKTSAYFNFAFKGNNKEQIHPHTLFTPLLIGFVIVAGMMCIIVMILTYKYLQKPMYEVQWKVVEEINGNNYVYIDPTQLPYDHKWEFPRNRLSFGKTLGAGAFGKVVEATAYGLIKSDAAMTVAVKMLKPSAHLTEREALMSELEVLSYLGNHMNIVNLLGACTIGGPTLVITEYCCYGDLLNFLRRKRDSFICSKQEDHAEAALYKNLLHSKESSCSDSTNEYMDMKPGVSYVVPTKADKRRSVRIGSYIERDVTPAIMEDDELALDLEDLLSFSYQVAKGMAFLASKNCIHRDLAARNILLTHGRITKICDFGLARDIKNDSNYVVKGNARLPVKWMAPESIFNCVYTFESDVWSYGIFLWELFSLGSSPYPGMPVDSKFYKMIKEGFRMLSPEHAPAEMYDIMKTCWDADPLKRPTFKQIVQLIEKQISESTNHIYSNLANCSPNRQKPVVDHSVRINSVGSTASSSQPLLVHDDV
T1 sequence (P10721 544-976 V654A): as the sequence (P10721 544-976 D816H) above, with V111A, H273D counted along it
Phospho-KIT (Tyr719) in GIST430 cells, sequence (P10721 with tags, fused parts or gaps DEL560-576/V654A, form open): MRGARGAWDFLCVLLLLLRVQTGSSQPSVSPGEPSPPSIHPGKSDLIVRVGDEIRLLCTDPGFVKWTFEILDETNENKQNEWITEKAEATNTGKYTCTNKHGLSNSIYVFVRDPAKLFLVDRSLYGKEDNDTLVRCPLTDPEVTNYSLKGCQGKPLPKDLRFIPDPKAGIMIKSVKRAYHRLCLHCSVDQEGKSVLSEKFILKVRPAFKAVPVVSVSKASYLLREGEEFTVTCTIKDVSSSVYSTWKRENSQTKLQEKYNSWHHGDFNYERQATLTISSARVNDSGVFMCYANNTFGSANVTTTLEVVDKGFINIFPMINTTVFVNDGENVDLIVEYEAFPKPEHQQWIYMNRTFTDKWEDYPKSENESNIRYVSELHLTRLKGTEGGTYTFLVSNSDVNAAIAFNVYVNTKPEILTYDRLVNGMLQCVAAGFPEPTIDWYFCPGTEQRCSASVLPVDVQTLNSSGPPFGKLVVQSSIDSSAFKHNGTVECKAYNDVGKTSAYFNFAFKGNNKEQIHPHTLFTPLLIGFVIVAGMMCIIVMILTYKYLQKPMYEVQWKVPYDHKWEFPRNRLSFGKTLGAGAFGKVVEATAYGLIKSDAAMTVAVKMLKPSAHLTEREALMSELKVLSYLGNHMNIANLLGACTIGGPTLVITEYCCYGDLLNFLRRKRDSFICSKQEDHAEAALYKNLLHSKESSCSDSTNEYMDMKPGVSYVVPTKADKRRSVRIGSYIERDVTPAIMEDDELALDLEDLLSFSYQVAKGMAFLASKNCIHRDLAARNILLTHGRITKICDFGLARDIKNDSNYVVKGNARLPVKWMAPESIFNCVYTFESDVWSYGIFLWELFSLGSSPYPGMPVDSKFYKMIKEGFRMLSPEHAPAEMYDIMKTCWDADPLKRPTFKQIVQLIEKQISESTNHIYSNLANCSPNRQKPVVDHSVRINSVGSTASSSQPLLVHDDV

Consider `CCn1c(=O)c(-c2cc(NC(=O)Nc3ccccc3)c(F)cc2Cl)cc2cnc(N)cc21` [Example 21, 1-(5-(7-amino-1-ethyl-2-oxo-1,2-dihydro-1,6-naphthyridin-3-yl)-4-chloro-2-fluorophenyl)-3-phenylurea], for which the IC50 in test [1] is < 0.01 µM; in test [2] it was 0.01 to 0.1 µM; in test [3] it was < 0.01 µM; in test [4], < 0.01 µM; in test [5] it was 0.01 to 0.1 µM; in test [6], < 0.01 µM.

For the compound `CCn1c(=O)c(-c2cc(NC(=O)Nc3cccc(CN4CCN(C)CC4)c3)c(F)cc2Cl)cc2cnc(NC)cc21` [Example 79, 1-(4-chloro-5-(1-ethyl-7-(methylamino)-2-oxo-1,2-dihydro-1,6-naphthyridin-3-yl)-2-fluorophenyl)-3-(3-((4-methylpiperazin-1-yl)methyl)phenyl)urea], the IC50 in test [1] is 0.1 to 1 µM; in test [2] it was 0.01 to 0.1 µM; in test [3] it was 0.01 to 0.1 µM; in test [4] it was 0.01 to 0.1 µM; in test [5], > 1 µM; in test [6] it was 0.01 to 0.1 µM.

In the case of `CCn1c(=O)c(-c2cc(NC(=O)Nc3cc(F)cc(CN4CCN(C)CC4)c3)c(F)cc2Cl)cc2cnc(NC)cc21` [Example 88, 1-(4-chloro-5-(1-ethyl-7-(methylamino)-2-oxo-1,2-dihydro-1,6-naphthyridin-3-yl)-2-fluorophenyl)-3-(3-fluoro-5-((4-methylpiperazin-1-yl)methyl)phenyl)urea], the IC50 fell in the range of 0.01 to 0.1 µM in test [1]; 0.01 to 0.1 µM in test [2]; 0.01 to 0.1 µM in test [3]; 0.01 to 0.1 µM in test [4]; 0.1 to 1 µM in test [5]; 0.01 to 0.1 µM in test [6].
